Results on 35 molecules are retold here after US11225480B2, “Malic enzyme inhibitors” (SUN PHARMA ADVANCED RESEARCH COMPANY LTD, priority 2019, dated 2022).

The assay concerns the target T1, human ME3 enzyme (Homo sapiens, UniProt Q16798).
T1 sequence (Q16798 1-604): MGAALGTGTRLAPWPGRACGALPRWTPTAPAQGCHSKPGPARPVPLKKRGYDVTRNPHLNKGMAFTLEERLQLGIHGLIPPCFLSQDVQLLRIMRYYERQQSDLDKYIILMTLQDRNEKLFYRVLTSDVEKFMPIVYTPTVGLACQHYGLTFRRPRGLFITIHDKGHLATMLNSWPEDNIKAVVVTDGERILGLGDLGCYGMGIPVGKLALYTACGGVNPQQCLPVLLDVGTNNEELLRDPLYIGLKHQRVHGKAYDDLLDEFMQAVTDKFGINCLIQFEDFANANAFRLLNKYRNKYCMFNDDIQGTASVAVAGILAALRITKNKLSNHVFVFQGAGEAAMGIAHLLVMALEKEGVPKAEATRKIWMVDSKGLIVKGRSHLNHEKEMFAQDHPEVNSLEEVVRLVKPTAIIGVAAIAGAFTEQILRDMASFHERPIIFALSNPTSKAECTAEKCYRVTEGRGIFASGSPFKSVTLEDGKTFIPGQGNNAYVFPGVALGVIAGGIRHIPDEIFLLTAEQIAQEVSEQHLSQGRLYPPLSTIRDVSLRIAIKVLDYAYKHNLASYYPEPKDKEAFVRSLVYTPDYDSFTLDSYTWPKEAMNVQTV
The assay is described as follows: ME3 inhibition assay (diaphorase/resazurin coupled fluorescence). The note with it: 10 μM compound concentration; read-out: Malic Enzyme 3 % inhibition (10 μM). The format is biochemical. How it is done: ME3 catalyzes the oxidative decarboxylation of malate to pyruvate with conversion of the co-factor β-NADP+ to NADPH. In the fluorescence assay, a coupled reaction is set up wherein an enzyme, Diaphorase, utilizes NADPH generated by ME3, to convert the dye resazurin to a fluorescent molecule resorufin.
The enzyme activity inhibition assay is set up in a 200 μL final reaction volume in a 96-well plate. As per the experimental design, 2 μL of the test compounds at 100× the desired concentration (10 μM) in DMSO were added to the respective wells with 178 μL of assay buffer (50 mM Tris-HCl pH 7.5, 10 mM MnCl2, 3 mM L-malate, 50 μM Resazurin and 0.025 mg/ml Diapharose). The 96-well plate was incubated on a plate shaker at room temperature for 15 minutes protected from light. The well contents were gently mixed by adding 10 μL of 20 nM human ME3 enzyme to the wells and the plate was incubated on a shaker at room temperature for 5 minutes protected from light. Suitable enzyme only and no enzyme controls were included in the experiment. The enzyme reaction was started by adding 10 μL of 1 mM D-NADP+. The reaction was gently mixed and the plate was initially left on a shaker at room temperature for ˜7 minutes protected from light. Later, the plate was incubated without shaking at room temperature for 3 hours. At the end of 3 hours, the fluorescence of the wells was measured at excitation 540 nm and emission 600 nm.
(Alamar Blue is a resazurin reagent that responds to reducing activity.)
As to `COCCN1CCC(C(=O)N2CCN(c3ccc(O)cc3)CC2)CC1` [I.7, [4-(4-Hydroxy-phenyl)-piperazin-1-yl]-[1-(2-methoxy-ethyl)-piperidin-4-yl]-methanone], the inhibition at 10 µM is above 90%. Under `O=C(c1n[nH]c2ccccc12)N1CCN(c2ccc(O)cc2)CC1` [I.8, [4-(4-Hydroxy-phenyl)-piperazin-1-yl]-(1H-indazol-3-yl)-methanone] stands above 90%. For `COCCOc1ccc2[nH]cc(C(=O)N3CCN(c4ccc(O)cc4)CC3)c2c1` [I.10, [4-(4-Hydroxy-phenyl)-piperazin-1-yl]-[5-(2-methoxy-ethoxy)-1H-indol-3-yl]-methanone] the value was above 90%. As to `CCCCOc1ccc(/C=C/C(=O)N2CCN(c3ccc(O)cc3)CC2)cc1` [I.12, 3-(4-Butoxy-phenyl)-1-[4-(4-hydroxy-phenyl)-piperazin-1-yl]-propenone], the inhibition at 10 µM was above 90%. In the case of `CCCCOc1ccc(CCC(=O)N2CCN(c3ccc(O)cc3)CC2)cc1` [I.13, 3-(4-Butoxy-phenyl)-1-[4-(4-hydroxy-phenyl)-piperazin-1-yl]-propan-1-one], the inhibition at 10 µM is above 90%. Under `CCCCOc1ccc2[nH]cc(C(=O)N3CCN(c4ccc(O)cc4)CC3)c2c1` [I.14, (5-Butoxy-1H-indol-3-yl)-[4-(4-hydroxy-phenyl)-piperazin-1-yl]-methanone] stands above 90%; under `O=C(c1cn(Cc2ccccc2)c2ccccc12)N1CCN(c2ccc(O)cc2)CC1` [I.15, (1-Benzyl-1H-indol-3-yl)-[4-(4-hydroxy-phenyl)-piperazin-1-yl]-methanone], above 90%; under `CC(=O)N[C@@H](Cc1ccccc1)C(=O)N1CCN(c2ccc(O)cc2)CC1` [I.16, N-{(1S)-1-Benzyl-2-[4-(4-hydroxy-phenyl)-piperazin-1-yl]-2-oxoethyl}-acetamide], above 90%. Under `O=C(C(=O)N1CCN(c2ccc(O)cc2)CC1)c1ccccc1` [I.17, 1-[4-(4-hydroxyphenyl)-piperazin-1-yl]-2-phenyl-ethane-1,2-dione] stands above 90%; under `CCCCn1cc(C(=O)N2CCN(c3ccc(O)cc3)CC2)c2ccccc21` [I.18, (1-Butyl-1H-indol-3-yl)-[4-(4-hydroxy-phenyl)-piperazin-1-yl]-methanone], above 90%. For `CC(=O)N[C@@H](C(=O)N1CCN(c2ccc(O)cc2)CC1)c1ccccc1` [I.19, N-{(1R)-2-[4-(4-Hydroxy-phenyl)-piperazin-1-yl]-2-oxo-1-phenyl-ethyl}acet-amide] the value was above 90%; for `O=C(c1cc(-c2ccccc2)nc(-c2ccccc2)c1)N1CCN(c2ccc(O)cc2)CC1` [I.20, (2,6-diphenyl-4-pyridyl)-[4-(4-hydroxyphenyl)piperazin-1-yl]methanone], above 90%. Regarding `O=C(c1cc2ccccc2c2ccccc12)N1CCN(c2ccc(O)cc2)CC1` [I.22, [4-(4-Hydroxy-phenyl)-piperazin-1-yl]-phenanthren-9-yl-methanone], the inhibition at 10 µM was above 90%. For `O=C(CCc1ccc2ccccc2c1)N1CCN(c2ccc(O)cc2)CC1` [I.23, 1-[4-(4-Hydroxy-phenyl)-piperazin-1-yl]-3-naphthalen-2-yl-propan-1-one] the value was above 90%. `O=C(c1cnc2ccccc2c1)N1CCN(c2ccc(O)cc2)CC1` [I.24, [4-(4-Hydroxy-phenyl)-piperazin-1-yl]-quinolin-3-yl-methanone]: the inhibition at 10 µM was above 90%.

Consider `O=C(c1cccc2cc3ccccc3cc12)N1CCN(c2ccc(O)cc2)CC1` [I.25, Anthracen-1-yl-[4-(4-hydroxy-phenyl)-piperazin-1-yl]-methanone], for which the inhibition at 10 µM was above 90%. `O=C(c1cccc2c1ccn2Cc1ccccc1)N1CCN(c2ccc(O)cc2)CC1` [I.26, (1-benzylindol-4-yl)-[4-(4-hydroxyphenyl)piperazin-1-yl]methanone]: the inhibition at 10 µM is above 90%. Under `O=C(c1cc(-c2ccccc2)cc(-c2ccccc2)c1)N1CCN(c2ccc(O)cc2)CC1` [I.27, (3,5-Diphenyl-phenyl)-[4-(4-hydroxy-phenyl)-piperazin-1-yl]methanone] stands above 90%. For `O=C(c1cccn2ccnc12)N1CCN(c2ccc(O)cc2)CC1` [I.29, [4-(4-Hydroxy-phenyl)-piperazin-1-yl]-imidazo[1,2-a]124yridine-8-yl-methanone] the value was above 90%. Turning to `O=C(c1cccc2[nH]ccc12)N1CCN(c2ccc(O)cc2)CC1` [I.30, [4-(4-Hydroxy-phenyl)-piperazin-1-yl]-(1H-indol-4-yl)-methanone], the inhibition at 10 µM is above 90%. For `O=C(c1cccn2c(-c3ccc(C(F)(F)F)cc3)cnc12)N1CCN(c2ccc(O)cc2)CC1` [I.31, [4-(4-hydroxy-phenyl)-piperazin-1-yl]-[3-(4-trifluoromethyl-phenyl)-imidazo[1,2-a]pyridin-8-yl]-methanone] the value was above 90%; for `O=C(O)c1cc(N2CCN(C(=O)Cc3ccccc3)CC2)ccc1O` [I.32, 2-hydroxy-5-(4-phenylacetyl-piperazin-1-yl)-benzoic acid], 70 to 89%; for `O=C(c1cc(-c2ccccc2)nc(N2CCOCC2)c1)N1CCN(c2ccc(O)cc2)CC1` [I.33, [4-(4-Hydroxy-phenyl)-piperazin-1-yl]-(2-morpholino-6-phenyl-4-pyridyl)-methanone], above 90%. Under `O=C(c1ccnc(-c2ccccc2)c1)N1CCN(c2ccc(O)cc2)CC1` [I.34, [4-(4-Hydroxy-phenyl)-piperazin-1-yl]-(2-phenyl-4-pyridyl)-methanone] stands above 90%; under `O=C(c1ccnc(N2CCOCC2)c1)N1CCN(c2ccc(O)cc2)CC1` [I.35, [4-(4-Hydroxy-phenyl)-piperazin-1-yl]-(2-morpholino-4-pyridyl)-methanone], above 90%. Under `O=C(c1cc(Cl)nc(N2CCOCC2)c1)N1CCN(c2ccc(O)cc2)CC1` [I.36] stands above 90%; under `N#Cc1cc(N2CCN(C(=O)c3cc(-c4ccccc4)nc(-c4ccccc4)c3)CC2)ccc1O` [I.37, 5-[4-(2,6-diphenylpyridine-4-carbonyl)piperazin-1-yl]-2-hydroxy-benzonitrile], 50 to 69%; under `O=C(O)c1cc(N2CCN(C(=O)c3cc(-c4ccccc4)nc(-c4ccccc4)c3)CC2)ccc1O` [I.38, 5-[4-(2,6-Diphenyl-pyridine-4-carbonyl)-piperazin-1-yl]-2-hydroxy-benzoic acid], above 90%. With `O=C(c1ccc(Cl)s1)N1CCN(c2ccc(O)cn2)CC1` [I.76, (5-Chloro-thiophen-2-yl)-[4-(5-hydroxy-pyridin-2-yl)-piperazin-1-yl]-methanone], the inhibition at 10 µM was above 90%.

Take `O=C(/C=C/c1ccc([N+](=O)[O-])cc1)N1CCN(c2ccc(O)cn2)CC1` [I.77, (E)-1-[4-(5-Hydroxy-pyridin-2-yl)-piperazin-1-yl]-3-(4-nitro-phenyl)-propenone]: the inhibition at 10 µM was above 90%. With `O=C(/C=C/c1ccc(Cl)cc1)N1CCN(c2ccc(O)cn2)CC1` [I.78, (E)-3-(4-Chlorophenyl)-1-[4-(5-hydroxy-pyridin-2-yl)-piperazin-1-yl]-propenone], the inhibition at 10 µM is above 90%.

On to `Cc1cn(-c2cc(C(=O)N3CCN(c4ccc(O)cn4)CC3)cc(C(F)(F)F)c2)cn1` [I.81, [4-(5-Hydroxy-pyridin-2-yl)-piperazin-1-yl]-[3-(4-methyl-imidazol-1-yl)-5-trifluoro-methylphenyl]-methanone], for which the inhibition at 10 µM is above 90%. For `Cc1ccc(C(=O)N2CCN(c3ccc(O)cn3)CC2)cc1Nc1nccc(-c2cccnc2)n1` [I.85, [4-(5-hydroxy-pyridin-2-yl)-piperazin-1-yl]-[4-methyl-3-(4-pyridin-3-yl-pyrimidin-2-ylamino)-phenyl]-methanone] the value was above 90%; for `O=C(c1nc2ccccc2[nH]1)N1CCN(c2ccc(O)cn2)CC1` [I.86, (1H-Benzo-imidazol-2-yl)-[4-(5-hydroxy-pyridin-2-yl)-piperazin-1-yl]-methanone], above 90%. Under `O=C(c1ccc(Br)s1)N1CCN(c2ccc(O)cn2)CC1` [I.87, (5-Bromo-thiophen-2-yl)-[4-(5-hydroxy-pyridin-2-yl)-piperazin-1-yl]-methanone] stands above 90%.

By inhibition is commonly meant how much of the control response was suppressed.
